We go through 20 compounds from patent US8592426B2, “Aryl-benzocycloalkyl amide derivatives” (Hoffmann—La Roche Inc., priority 2011, dated 2013).

Assay [1] concerns the target T1, Bradykinin-1 receptor (Homo sapiens (Human), UniProt P46663). Nature of the assay: Calcium mobilization assay (FLIPR, Fluo-4) in GeneBLAzer Bradykinin (B1)-NFAT-bla CHO-K1 cells. Format: cell-based. To be noted: antagonist activity; CHO-K1 cells stably overexpressing the human bradykinin 1 receptor; read-out: Ca mobilization Assay IC50. How it is done: Calcium Mobilization Assay
GeneBLAzer® Bradykinin (B1)-NFAT-bla CHO-K1 cells (from Invitrogen) stably overexpressing the human bradykinin 1 receptor were cultured in DMEM (high glucose) supplemented with 10% dialysed FBS, 1% NEAA (non essential amino acids) 1% penicillin/streptomycin, 1% G418 and 0.1 mg/ml zeocin.
For the assay cells were grown overnight in 384-well black clear flat bottom polystyrene plates (Costar) at 37° C. at 5% CO2. After washing with DMEM, 20 mM Hepes, 2.5 mM probenecid, 0.1% BSA (DMEM assay buffer) cells were loaded with 4 μM Fluo-4 in the same DMEM assay buffer for 2 hours at 30° C. Excess dye was removed and cells were washed with DMEM assay buffer. 384-well compound plates were prepared with DMEM assay buffer/0.5% DMSO with or without various concentrations of test compounds. Usually compounds were tested for agonist and antagonist activity.
Test compounds were added to the assay plate and agonist activity was monitored as fluorescence for 80 seconds with a FLIPR (488 nm excitation; 510-570 nm emission; Molecular Devices). After 20-30 min. of incubation at 30° C., 20 nM […] (R&D; Roche) was added and fluorescence was monitored again for 80 seconds. Increases in intracellular calcium are reported as maximum fluorescence after agonist exposure minus basal fluorescence before exposure.
On the technique in general: Calcium assays in cells follow changes in intracellular calcium, usually with a dye or a luminescent sensor.

The target of assay [2] is T1, Bradykinin-1 receptor. Nature of the assay: Receptor binding assay (B1R Binding Assay), [3H]-Kallidin (Des Arg10, Leu9) displacement. To be noted: membranes from CHO-K1 cells overexpressing Bradykinin-1 receptor; 6 nM radioligand. The procedure: Binding assays were done with membranes from CHO-K1 cells overexpressing Bradykinin-1 receptor.
To determine non-specific binding 10 μM Lys-(Des-Arg^9)-Bradykinin (Bachem) was added. Membranes were harvested through GF/B (glass fiber filter; PerkinElmer) plates, equilibrated with 0.5% polyethylenimine, air dried at 50° C. for 2 h. Radioactivity was determined by counting in a topcounter (NXT Packard).

pIC50, pKi: −log10 of the molar value.

T1 sequence (P46663 whole entry): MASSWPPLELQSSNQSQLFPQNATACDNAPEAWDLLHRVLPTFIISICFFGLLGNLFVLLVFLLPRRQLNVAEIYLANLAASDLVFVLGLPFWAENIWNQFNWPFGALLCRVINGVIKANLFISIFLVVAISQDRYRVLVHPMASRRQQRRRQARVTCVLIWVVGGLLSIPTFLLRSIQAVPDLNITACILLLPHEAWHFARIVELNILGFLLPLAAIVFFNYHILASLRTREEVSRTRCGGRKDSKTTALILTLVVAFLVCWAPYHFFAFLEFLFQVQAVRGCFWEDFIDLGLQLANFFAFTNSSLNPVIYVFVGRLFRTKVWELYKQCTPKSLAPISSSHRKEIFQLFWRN

The pIC50 is −log10 of the IC50, conventionally taken in molar units. As usually defined, the pKi is −log10 of the Ki, conventionally taken in molar units. Lower therefore signals a high Ki. Turning to `COc1ncc(C(=O)NC2(C(=O)NC3CCc4cc(-c5cc(Cl)cc(F)c5-c5nnn(C)n5)cnc43)CC2)cn1` (racemic) [Example 56, 2-Methoxy-pyrimidine-5-carboxylic acid(1-{(rac)-3-[5-chloro-3-fluoro-2-(2-methyl-2H-tetrazol-5-yl)-phenyl]-6,7-dihydro-5H-[1]pyrindin-7-ylcarbamoyl}-cyclopropyl)-amide], the pIC50 at Bradykinin-1 receptor [1] was 9.70. On Bradykinin-1 receptor [2], this compound had a pKi of 8.35.
The matching figures for `Cc1nc(-c2c(F)cc(Cl)cc2-c2ccc3c(c2)OCC3NC(=O)C2(NC(=O)c3ccnnc3)CC2)no1` (racemic) [Example 46, Pyridazine-4-carboxylic acid(1-{(rac)-6-[5-chloro-3-fluoro-2-(5-methyl-[1,2,4]oxadiazol-3-yl)-phenyl]-2,3-dihydro-benzofuran-3-ylcarbamoyl}-cyclopropyl)-amide]: 8.33 and 7.72.
The matching figures for `COc1cc(C(=O)NC2(C(=O)NC3COc4cc(-c5cc(Cl)cc(F)c5-c5noc(C)n5)ccc43)CC2)on1` (racemic) [Example 48, 3-Methoxy-isoxazole-5-carboxylic acid(1-{(rac)-6-[5-chloro-3-fluoro-2-(5-methyl-[1,2,4]oxadiazol-3-yl)-phenyl]-2,3-dihydro-benzofuran-3-ylcarbamoyl}-cyclopropyl)-amide]: 8.40 and 7.62.
The matching figures for `Cc1nc(-c2c(F)cc(Cl)cc2-c2cnc3c(c2)CCC3NC(=O)C2(NC(=O)c3ccno3)CC2)no1` (racemic) [Example 43, Isoxazole-5-carboxylic acid(1-{(rac)-3-[5-chloro-3-fluoro-2-(5-methyl-[1,2,4]oxadiazol-3-yl)-phenyl]-6,7-dihydro-5H-[1]pyrindin-7-ylcarbamoyl}-cyclopropyl)-amide]: 9.52 and 8.20.
Consider `COc1ncc(C(=O)NC2(C(=O)N[C@H]3CCc4cc(-c5cc(Cl)cc(F)c5-c5noc(C)n5)ccc43)CC2)cn1` [Example 26, 2-Methoxy-pyrimidine-5-carboxylic acid(1-{(S)-5-[5-chloro-3-fluoro-2-(5-methyl-[1,2,4]oxadiazol-3-yl)-phenyl]-indan-1-ylcarbamoyl}-cyclopropyl)-amide], for which the pIC50 on Bradykinin-1 receptor [1] was 9.70. This compound had a pKi on Bradykinin-1 receptor [2] of 8.59.
The matching figures for `Cn1nnc(-c2c(F)cc(Cl)cc2-c2ccc3c(c2)OCCC3NC(=O)C2(NC(=O)C(F)(F)F)CC2)n1` (racemic) [Example 15, 1-(2,2,2-Trifluoro-acetylamino)-cyclopropanecarboxylic acid{(rac)-7-[5-chloro-3-fluoro-2-(2-methyl-2H-tetrazol-5-yl)-phenyl]-chroman-4-yl}-amide]: 7.61 and 6.77.
On the same counts, the results for `Cc1nc(-c2c(F)cc(Cl)cc2-c2cnc3c(c2)CCC3NC(=O)C2(NC(=O)C(F)(F)F)CC2)no1` (racemic) [Example 12, 1-(2,2,2-Trifluoro-acetylamino)-cyclopropanecarboxylic acid{(rac)-3-[5-chloro-3-fluoro-2-(5-methyl-[1,2,4]oxadiazol-3-yl)-phenyl]-6,7-dihydro-5H-[1]pyrindin-7-yl}-amide] are 9.30 and 8.36.
On the same counts, the results for `Cc1nc(-c2c(F)cc(Cl)cc2-c2ccc3c(c2)CC[C@@H]3NC(=O)C2(N)CC2)no1` [Example 24, 1-Amino-cyclopropanecarboxylic acid{(S)-5-[5-chloro-3-fluoro-2-(5-methyl-[1,2,4]oxadiazol-3-yl)-phenyl]-indan-1-yl}-amide] are 8.30 and 7.44.
With `Cc1nnc(C(=O)NC2(C(=O)NC3CSc4cc(-c5cc(Cl)cc(F)c5-c5nnn(C)n5)ccc43)CC2)o1` (racemic) [Example 62, 5-Methyl-[1,3,4]oxadiazole-2-carboxylic acid(1-{(rac)-6-[5-chloro-3-fluoro-2-(2-methyl-2H-tetrazol-5-yl)-phenyl]-2,3-dihydro-benzo[b]thiophen-3-ylcarbamoyl}-cyclopropyl)-amide], the pIC50 on Bradykinin-1 receptor [1] is 8.32. The pKi on Bradykinin-1 receptor [2] was 7.91.
The matching figures for `Cn1nnc(-c2c(F)cc(Cl)cc2-c2ccc3c(c2)OCC3NC(=O)C2(NC(=O)C(F)(F)F)CC2)n1` (racemic) [Example 20, 1-(2,2,2-Trifluoro-acetylamino)-cyclopropanecarboxylic acid{(rac)-6-[5-chloro-3-fluoro-2-(2-methyl-2H-tetrazol-5-yl)-phenyl]-2,3-dihydro-benzofuran-3-yl}-amide]: 8.44 and 7.62.
On the same counts, the results for `Cn1nnc(-c2c(F)cc(Cl)cc2-c2cnc3c(c2)CCC3NC(=O)C2(NC(=O)OC(C)(C)C)CC2)n1` (racemic) [Example 54, (1-{(rac)-3-[5-Chloro-3-fluoro-2-(2-methyl-2H-tetrazol-5-yl)-phenyl]-6,7-dihydro-5H-[1]pyrindin-7-ylcarbamoyl}-cyclopropyl)-carbamic acid tert-butyl ester] are 8.24 and 7.20.
The matching figures for `Cc1nc(-c2c(F)cc(Cl)cc2-c2ccc3c(c2)CC[C@@H]3NC(=O)C2(NC(=O)c3cncnc3)CC2)no1` [Example 25, Pyrimidine-5-carboxylic acid(1-{(S)-5-[5-chloro-3-fluoro-2-(5-methyl-[1,2,4]oxadiazol-3-yl)-phenyl]-indan-1-ylcarbamoyl}-cyclopropyl)-amide]: 10.00 and 8.51.
As for `COc1ncc(C(=O)NC2(C(=O)NC3CCc4cc(-c5cc(Cl)cc(F)c5-c5noc(C)n5)cc(F)c43)CC2)cn1` (racemic) [Example 33, 2-Methoxy-pyrimidine-5-carboxylic acid(1-{(rac)-5-[5-chloro-3-fluoro-2-(5-methyl-[1,2,4]oxadiazol-3-yl)-phenyl]-7-fluoro-indan-1-ylcarbamoyl}-cyclopropyl)-amide], the pIC50 on Bradykinin-1 receptor [1] is 9.30. The same compound gave a pKi on Bradykinin-1 receptor [2] of 7.72.
Take `COC(=O)c1c(Cl)cccc1-c1ccc2c(c1)CCCC2NC(=O)C1(NC(=O)C(F)(F)F)CC1` (racemic) [Example 10, (rac)-2-Chloro-6-(5-{[1-(2,2,2-trifluoro-acetylamino)-cyclopropanecarbonyl]-amino}-5,6,7,8-tetrahydro-naphthalen-2-yl)-benzoic acid methyl ester]: the pIC50 at Bradykinin-1 receptor [1] was 6.93. Also, the pKi at Bradykinin-1 receptor [2] is 6.28.
On the same counts, the results for `Cc1nc(-c2c(F)cc(Cl)cc2-c2ccc3c(c2)CC[C@@H]3NC(=O)C2(NC(=O)c3ccno3)CC2)no1` [Example 28, Isoxazole-5-carboxylic acid(1-{(S)-5-[5-chloro-3-fluoro-2-(5-methyl-[1,2,4]oxadiazol-3-yl)-phenyl]-indan-1-ylcarbamoyl}-cyclopropyl)-amide] are 9.52 and 8.39.
The matching figures for `Cc1nc(-c2c(F)cc(Cl)cc2-c2cnc3c(c2)CCC3NC(=O)C2(NC(=O)c3ccnnc3)CC2)no1` (single isomer, unassigned) [Example 41, Pyridazine-4-carboxylic acid(1-{(S or R) 3-[5-chloro-3-fluoro-2-(5-methyl-[1,2,4]oxadiazol-3-yl)-phenyl]-6,7-dihydro-5H-[1]pyrindin-7-ylcarbamoyl}-cyclopropyl)-amide]: 9.70 and 8.40.
With `Cn1nnc(-c2c(F)cc(Cl)cc2-c2cnc3c(c2)CCC3NC(=O)C2(N)CC2)n1` (racemic) [Example 55, 1-Amino-cyclopropanecarboxylic acid{(rac)-3-[5-chloro-3-fluoro-2-(2-methyl-2H-tetrazol-5-yl)-phenyl]-6,7-dihydro-5H-[1]pyrindin-7-yl}-amide], on Bradykinin-1 receptor [1], the pIC50 is 7.21. This compound also showed a pKi on Bradykinin-1 receptor [2] of 6.68.
On the same counts, the results for `Cc1nc(-c2c(F)cc(Cl)cc2-c2ccc3c(c2)OCC3NC(=O)C2(N)CC2)no1` (racemic) [Example 45, 1-Amino-cyclopropanecarboxylic acid{(rac)-6-[5-chloro-3-fluoro-2-(5-methyl-[1,2,4]oxadiazol-3-yl)-phenyl]-2,3-dihydro-benzofuran-3-yl}-amide] are 6.15 and 5.82.
On the same counts, the results for `COc1cc(C(=O)NC2(C(=O)NC3CSc4cc(-c5cc(Cl)cc(F)c5-c5nnn(C)n5)ccc43)CC2)on1` (racemic) [Example 65, 3-Methoxy-isoxazole-5-carboxylic acid(1-{(rac)-6-[5-chloro-3-fluoro-2-(2-methyl-2H-tetrazol-5-yl)-phenyl]-2,3-dihydro-benzo[b]thiophen-3-ylcarbamoyl}-cyclopropyl)-amide] are 9.70 and 8.36.
The matching figures for `Cc1nc(-c2c(F)cc(Cl)cc2-c2ccc3c(c2)OCC3NC(=O)C2(NC(=O)C(F)(F)F)CC2)no1` (racemic) [Example 19, 1-(2,2,2-Trifluoro-acetylamino)-cyclopropanecarboxylic acid{(rac)-6-[5-chloro-3-fluoro-2-(5-methyl-[1,2,4]oxadiazol-3-yl)-phenyl]-2,3-dihydro-benzofuran-3-yl}-amide]: 8.35 and 7.48.
